Calls of active or inactive are those of the source. No cut-off for these calls is given here.
Legend:
Feline coronavirus = test: Antiviral activity against Feline coronavirus; format: functional, organism-based
[1] = test system: unidentified human coronavirus; test: Antiviral activity against Human coronavirus; format: functional
Coxsackievirus B4 = test: Antiviral activity against Human coxsackievirus B4; format: functional, organism-based
Measles morbillivirus = test: Antiviral activity against Measles virus; format: functional, organism-based
unidentified adenovirus = test: Antiviral activity against Adenovirus; format: functional, organism-based
Sindbis virus = test: Antiviral activity against Sindbis virus; format: functional, organism-based
Human betaherpesvirus 5 = test: Antiviral activity against Human cytomegalovirus; format: functional, organism-based
Reovirus sp. = test: Antiviral activity against Reovirus; format: functional, organism-based
Human alphaherpesvirus 3 = test: Antiviral activity against Varicella zoster virus; format: functional, organism-based
Human alphaherpesvirus 2 = test: Antiviral activity against Herpes simplex virus 2; format: functional, organism-based
Human alphaherpesvirus 1 = test: Antiviral activity against Herpes simplex virus 1; format: functional, organism-based
Enterovirus = test: Antiviral activity against Rhinovirus; format: functional, organism-based
[2] = test system: Respiratory syncytial virus; test: Antiviral activity against Respiratory syncytial virus; format: functional, organism-based
Punta Toro virus = test: Antiviral activity against Punta Toro virus; format: functional, organism-based
Hepatitis C virus = test: Antiviral activity against Hepatitis C virus; format: functional, organism-based; details: Hepacivirus hominis
Pichinde virus = test: Antiviral activity against Pichinde virus; format: functional, organism-based
Hepatitis B virus = test: Antiviral activity against Hepatitis B virus; format: functional, organism-based
Dengue virus = test: Antiviral activity against Dengue virus; format: functional, organism-based
Yellow fever virus = test: Antiviral activity against Yellow fever virus; format: functional, organism-based
West Nile virus = test: Antiviral activity against West Nile virus; format: functional, organism-based
[3] = test system: Venezuelan equine encephalitis virus; test: Antiviral activity against Venezuelan equine encephalitis virus; format: functional, organism-based
Human respirovirus 3 = test: Antiviral activity against Human parainfluenza virus 3; format: functional, organism-based
Influenza B virus = test: Antiviral activity against Influenza B virus; format: functional, organism-based
Influenza A virus [4] = test: Antiviral activity against Influenza A virus H3N2; format: functional, organism-based
Influenza A virus [5] = test: Antiviral activity against Influenza A virus H1N1; format: functional, organism-based
[6] = Cytotoxicity against human HEL cells after 3 days by neutral red uptake assay; format: cell-based
[7] = Cytotoxicity against human Daudi cells after 3 days by neutral red uptake assay; format: cell-based
[8] = test system: Vesicular stomatitis virus; test: Antiviral activity against Vesicular stomatitis virus infected in human HEL cells assessed as inhibition of virus-induced cytopathic effect after 3 days by microscopic analysis; format: functional, organism-based; details: 72 h
Human gammaherpesvirus 4 = test: Antiviral activity against Epstein Barr virus infected in human Daudi cells assessed as inhibition of virus-induced cytopathic effect after 3 days by microscopic analysis; format: functional, organism-based; details: human gammaherpesvirus 4, Daudi, 72 h
[9] = Cytotoxicity against african green monkey Vero 76 cells after 3 days by neutral red uptake assay; format: cell-based; details: chlorocebus sabaeus
Cowpox virus = test: Antiviral activity against Cowpox virus infected in african green monkey Vero 76 cells assessed as inhibition of virus-induced cytopathic effect after 3 days by microscopic analysis; format: functional, organism-based; details: 72 h
Vaccinia virus = test: Antiviral activity against Vaccinia virus infected in african green monkey Vero 76 cells assessed as inhibition of virus-induced cytopathic effect after 3 days by microscopic analysis; format: functional, organism-based; details: Orthopoxvirus vaccinia, 72 h

Row | Compound | Activity (Feline coronavirus) | Activity [1] | Activity (Coxsackievirus B4) | Activity (Measles morbillivirus) | Activity (unidentified adenovirus) | Activity (Sindbis virus) | Activity (Human betaherpesvirus 5) | Activity (Reovirus sp.) | Activity (Human alphaherpesvirus 3) | Activity (Human alphaherpesvirus 2) | Activity (Human alphaherpesvirus 1) | Activity (Enterovirus) | Activity [2] | Activity (Punta Toro virus) | Activity (Hepatitis C virus) | Activity (Pichinde virus) | Activity (Hepatitis B virus) | CC50 at 72 h [9] [µM] | IC50 (Cowpox virus) [µM] | IC50 (Vaccinia virus) [µM] | further results
1 | C[C@@H](O)C[C@H]1C[C@@H](n2cnc3c(N)ncnc32)[C@H](O)[C@@H]1O (mixture of isomers) | inactive | inactive | inactive | inactive | inactive | inactive | inactive | inactive | inactive | inactive | inactive | inactive | inactive | inactive | inactive | inactive | inactive | > 300 | 223 | 24 | Activity (Dengue virus): inactive; Activity (Yellow fever virus): inactive; Activity (West Nile virus): inactive; Activity [3]: inactive; Activity (Human respirovirus 3): inactive; Activity (Influenza B virus): inactive; Activity (Influenza A virus [4]): inactive; Activity (Influenza A virus [5]): inactive; CC50 at 72 h [6]: > 300 µM; CC50 at 72 h [7]: > 300 µM; IC50 [8]: 4.8 µM; IC50 (Human gammaherpesvirus 4): 6.6 µM
2 | C[C@H](O)C[C@H]1C[C@@H](n2cnc3c(N)ncnc32)[C@H](O)[C@@H]1O (mixture of isomers) | inactive | inactive | inactive | inactive | inactive | inactive | inactive | inactive | inactive | inactive | inactive | inactive | inactive | inactive | inactive | inactive | inactive | > 300 | 164 | 4.8 | Activity (Dengue virus): inactive; Activity (Yellow fever virus): inactive; Activity (West Nile virus): inactive; Activity [3]: inactive; Activity (Human respirovirus 3): inactive; Activity (Influenza B virus): inactive; Activity (Influenza A virus [4]): inactive; Activity (Influenza A virus [5]): inactive; CC50 at 72 h [6]: > 300 µM; CC50 at 72 h [7]: > 300 µM; IC50 [8]: 1.6 µM; IC50 (Human gammaherpesvirus 4): 6.4 µM
3 | Nc1ncnc2c1ncn2[C@@H]1C[C@H](CCO)[C@@H](O)[C@H]1O | – | – | – | – | – | – | – | – | – | – | – | – | – | – | – | – | – | > 300 | 0.49 | 4.29 | –

Reference: ChEMBL document CHEMBL2396569, “6'-Methyl-5'-homoaristeromycin: a structural variation of the anti-orthopox virus candidate 5'-homoaristeromycin” (Bioorg Med Chem, 2013)
